These results are taken from patent US20250282768A1 (Janssen Pharmaceutica NV, priority 2022, published 2025).

The assay relates to p-IKKa levels in L363 (NIK translocated multiple myeloma) cells. Put plainly: Assay 2: Effect of compounds on p-IKKa levels in L363 (NIK translocated multiple myeloma) cells. The class given is cell-based. The following applies: Homo sapiens, L-363, 6 h, read-out: Assay 2 IC50 (nM), p-IKKa (Ser 176/180) in BAFF stimulated L363 cells with MG132, 6 h; average if tested more than once. Summed up:
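Read-out is p-IKKa Ser176/180 by AlphaLISA SureFire in lysates. Cells were BAFF-primed (250 ng/ml) overnight or left unstimulated, then exposed 6 h at 37 °C to compound with MG132 (10 μM), 0.3% DMSO. IC50 from sigmoidal curve fit, normalized between stimulated and unstimulated controls.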

As for `CN1CC[C@H](n2cc(Nc3nccc(-c4cccc(-c5cc([C@]6(O)CCN(C)C6=O)on5)n4)n3)cn2)C1` (single isomer, unassigned) [Example 203, (R)-3-Hydroxy-1-methyl-3-(3-(6-(2-((1-((*S)-1-methylpyrrolidin-3-yl)-1H-pyrazol-4-yl)amino)pyrimidin-4-yl)pyridin-2-yl)isoxazol-5-yl)pyrrolidin-2-one], the IC50 fell in the range of 50 to 500 nM.

For the compound `CN1CC[C@@](O)(c2cc(-c3cccc(-c4ccnc(N[C@@H]5CCCC[C@@H]5O)n4)n3)no2)C1=O` (single isomer, unassigned) [Example 336], the IC50 is > 500 nM.

As to `CN1CC[C@@](O)(c2cc(-c3cccc(-c4ccnc(N[C@H]5CCCC[C@H]5O)n4)n3)no2)C1=O` (single isomer, unassigned) [Example 337], the IC50 is > 500 nM.

Take `C[C@H]1OCC[C@@H]1Nc1nccc(-c2cccc(-c3cc([C@]4(O)CCN(C)C4=O)on3)n2)n1` (single isomer, unassigned) [Example 346]: the IC50 is 50 to 500 nM.

As for `C[C@@H]1OCC[C@@H]1Nc1nccc(-c2cccc(-c3cc([C@]4(O)CCN(C)C4=O)on3)n2)n1` (single isomer, unassigned) [Example 347], the IC50 lay within 50 to 500 nM.

On to `C[C@H](Nc1nccc(-c2cccc(-c3cc([C@]4(O)CCN(C)C4=O)no3)n2)n1)c1cnn(C)c1` (single isomer, unassigned) [Example 400], for which the IC50 was > 500 nM.

As for `C[C@@H](Nc1nccc(-c2cccc(-c3cc([C@]4(O)CCN(C)C4=O)no3)n2)n1)c1cnn(C)c1` (single isomer, unassigned) [Example 401], the IC50 is < 50 nM.

Take `C[C@@H](Nc1nccc(-c2cccc(-c3cc([C@]4(O)CCN(C)C4=O)on3)n2)n1)c1ccn(C)n1` (single isomer, unassigned) [Example 404, (R)-3-Hydroxy-1-methyl-3-(3-(6-(2-(((*R)-1-(1-methyl-1H-pyrazol-3-yl)ethyl)amino)pyrimidin-4-yl)pyridin-2-yl)isoxazol-5-yl)pyrrolidin-2-one]: the IC50 is > 500 nM.

In the case of `C[C@H](Nc1nccc(-c2cccc(-c3cc([C@]4(O)CCN(C)C4=O)on3)n2)n1)c1ccn(C)n1` (single isomer, unassigned) [Example 405, (R)-3-hydroxy-1-methyl-3-(3-(6-(2-(((*S)-1-(1-methyl-1H-pyrazol-3-yl)ethyl)amino)pyrimidin-4-yl)pyridin-2-yl)isoxazol-5-yl)pyrrolidin-2-one], the IC50 is 50 to 500 nM.

As to `CN1CC[C@@](O)(c2cnn(-c3cccc(-c4ccnc(Nc5cnn(C)c5Cl)n4)n3)c2)C1=O` (single isomer, unassigned) [Example 411, (*R)-3-(1-(6-(2-((5-Chloro-1-methyl-1H-pyrazol-4-yl)amino)pyrimidin-4-yl)pyridin-2-yl)-1H-pyrazol-4-yl)-3-hydroxy-1-methylpyrrolidin-2-one], the IC50 lay within 50 to 500 nM.

Consider `C[C@@H](CC(F)(F)F)Nc1nccc(-c2cccc(-c3cc([C@]4(O)CCN(C)C4=O)on3)n2)n1` (single isomer, unassigned) [Example 437, (R)-3-Hydroxy-1-methyl-3-(3-(6-(2-(((*S)-4,4,4-trifluorobutan-2-yl)amino)pyrimidin-4-yl)pyridin-2-yl)isoxazol-5-yl)pyrrolidin-2-one], for which the IC50 was in the range of 50 to 500 nM.

For `C[C@H](CC(F)(F)F)Nc1nccc(-c2cccc(-c3cc([C@]4(O)CCN(C)C4=O)on3)n2)n1` (single isomer, unassigned) [Example 438, (R)-3-Hydroxy-1-methyl-3-(3-(6-(2-(((*R)-4,4,4-trifluorobutan-2-yl)amino)pyrimidin-4-yl)pyridin-2-yl)isoxazol-5-yl)pyrrolidin-2-one], the IC50 was in the range of 50 to 500 nM.

As for `CN1CC[C@@](O)(c2cc(-c3cccc(-c4ccnc(N[C@H]5CCSC5)n4)n3)no2)C1=O` (single isomer, unassigned) [Example 457, (R)-3-Hydroxy-1-methyl-3-(3-(6-(2-(((*S)-tetrahydrothiophen-3-yl)amino)pyrimidin-4-yl)pyridin-2-yl)isoxazol-5-yl)pyrrolidin-2-one], the IC50 is 50 to 500 nM.
